Measured values published in patent US11168074B2, “Potassium channel inhibitors” (ACESION PHARMA ApS, priority 2017, dated 2021).

Target: T1, human SK3 channel (hKCa2.3) (Homo sapiens, UniProt Q9UGI6)
T1 construct: expressed in transfected cells
Test: Automated patch clamping (QPatch 16 HT whole cell patch-clamp)
Type: cell-based
Conditions: HEK-293 cells stably expressing hKCa2.3; free calcium 400 nM; effects normalized to N-methyl bicuculline; read-out: IC50 in the Automated patch clamping assay (concentration needed to inhibit half of the SK channel activity)
Description: Automated whole cell patch-clamp recordings were performed using a QPatch 16 HT system and single-hole Qplates (Biolin Scientific, Sophion, Denmark) on HEK-293 cells stably expressing the human SK3 channel (hKCa2.3). Cells were cultured and prepared for experiments using normal cell culturing procedures. A total of 4-5 million cells were used per experiment. The Qpatch automatically generates giga sealing, whole-cell formation, compound application and recording of current. hKCa2.3 currents were recorded in symmetrical K^+ solutions, with an intracellular solution consisting of in mM: KCl 108; KOH/EGTA (ethylene glycol-bis(2-aminoethylether)-N,N,N′,N′-tetraacetic acid) 31.25/10; CaCl2 8.1; MgCl2 1.2; HEPES (2-[4-(2-hydroxyethyl)piperazin-1-yl]ethanesulfonic acid) 10; KOH 15, pH adjusted to pH=7.2 with HCl. The free calcium concentration was calculated to 400 nM. The extracellular solution consisted of in mM: KCl 150; CaCl2 0.1; MgCl2 3; HEPES 10; Glucose 10, pH=7.4 with KOH. The cells were held at 0 mV and hKCa2.3 currents were elicited by a linear voltage ramp from −80 mV to +80 mV (200 ms in duration) applied every 5th second. The compound application protocol consisted of 12 recording periods lasting from 50-200 s: 1) Baseline recordings in extracellular solution; 2) Application of the positive control N-methyl bicuculline (100 μM), which is characterized by full efficacy, fast on- and off-rate; 3-4) Wash-out; 5-9) Increasing concentrations of test compound to establish an IC50 value; 10-11) Wash-out; 12) positive control with compound NS8593 (N-[(1R)-1,2,3,4-tetrahydro-1-naphthalenyl]-1H-benzimidazol-2-amine) (1 μM). Data were sampled at 10 kHz, 4th order Bessel filter, cut-off frequency 3 kHz. Currents were compensated for run-down. Potency was quantified as the concentration needed to inhibit half of the SK channel activity and reported as an IC50 value. All effects of compounds of the present invention as tested were normalized to the observed inhibitory effect of N-methyl bicuculline.

SMILES | IC50 [µM]
CCC(=O)NCC(Nc1nc2ccccc2[nH]1)c1cccc(C(F)(F)F)c1 (single isomer, unassigned) [Example 10a, N-{2-[(1H-1,3-benzodiazol-2-yl)amino]-2-[3-(trifluoromethyl)phenyl]ethyl}propanamide] | < 10
CC(=O)NCCC(Nc1nc2ccccc2[nH]1)c1cccc(C(F)(F)F)c1 (single isomer, unassigned; (-)) [Example 14a, (−)-N-{3-[(1H-1,3-benzodiazol-2-yl)amino]-3-[3-(trifluoromethyl)phenyl]propyl}acetamide] | < 10
CC(=O)N(C)CCC(Nc1nc2ccccc2[nH]1)c1cccc(C(F)(F)F)c1 (single isomer, unassigned; (-)) [Example 18a, (−)-N-{3-[(1H-1,3-benzodiazol-2-yl)amino]-3-[3-(trifluoromethyl)phenyl]propyl}-N-methylacetamide] | < 10
CC(=O)NCCCC(Nc1nc2ccccc2[nH]1)c1cccc(C(F)(F)F)c1 (single isomer, unassigned; (-)) [Example 19a, (−)-N-{4-[(1H-1,3-benzodiazol-2-yl)amino]-4-[3-(trifluoromethyl)phenyl]butyl}acetamide] | < 10
CC(=O)NCCC(Nc1nc2ccccc2[nH]1)c1cccc(OC(F)(F)F)c1 (single isomer, unassigned; (-)) [Example 22a, (−)-N-{3-[(1H-1,3-benzodiazol-2-yl)amino]-3-[3-(trifluoromethoxy)phenyl]propyl}acetamide] | < 10
O=C(NCC(Nc1nc2ccccc2[nH]1)c1cccc(C(F)(F)F)c1)c1ccon1 (stereo not drawn) [Example 1, N-{2-[(1H-1,3-benzodiazol-2-yl)amino]-2-[3-(trifluoromethyl)phenyl]ethyl}-1,2-oxazole-3-carboxamide] | < 10
O=C(NCC(Nc1nc2ccccc2[nH]1)c1cccc(C(F)(F)F)c1)C1CCC1 (stereo not drawn) [Example 2, N-{2-[(1H-1,3-benzodiazol-2-yl)amino]-2-[3-(trifluoromethyl)phenyl]ethyl}cyclobutanecarboxamide] | < 10
O=C(NCC(Nc1nc2ccccc2[nH]1)c1cccc(C(F)(F)F)c1)C1CC1 (stereo not drawn) [Example 3, N-{2-[(1H-1,3-benzodiazol-2-yl)amino]-2-[3-(trifluoromethyl)phenyl]ethyl}cyclopropanecarboxamide] | < 10
O=C(NCC(Nc1nc2ccccc2[nH]1)c1cccc(C(F)(F)F)c1)c1ncon1 (stereo not drawn) [Example 4, N-{2-[(1H-1,3-benzodiazol-2-yl)amino]-2-[3-(trifluoromethyl)phenyl]ethyl}-1,2,4-oxadiazole-3-carboxamide; trifluoroacetic acid] | < 10
O=C(NCC(Nc1nc2ccccc2[nH]1)c1cccc(C(F)(F)F)c1)c1ccncn1 (stereo not drawn) [Example 5, N-{2-[(1H-1,3-benzodiazol-2-yl)amino]-2-[3-(trifluoromethyl)phenyl]ethyl}pyrimidine-4-carboxamide; trifluoroacetic acid] | < 10
O=C(NCC(Nc1nc2ccccc2[nH]1)c1cccc(C(F)(F)F)c1)c1ccccn1 (stereo not drawn) [Example 6, N-{2-[(1H-1,3-benzodiazol-2-yl)amino]-2-[3-(trifluoromethyl)phenyl]ethyl}pyridine-2-carboxamide; trifluoroacetic acid] | < 10
N#Cc1cccc(C(=O)NCC(Nc2nc3ccccc3[nH]2)c2cccc(C(F)(F)F)c2)c1 (stereo not drawn) [Example 7, N-{2-[(1H-1,3-benzodiazol-2-yl)amino]-2-[3-(trifluoromethyl)phenyl]ethyl}-3-cyanobenzamide] | < 10
O=C(NCC(Nc1nc2ccccc2[nH]1)c1cccc(C(F)(F)F)c1)C1CCOCC1 (stereo not drawn) [Example 8, N-{2-[(1H-1,3-benzodiazol-2-yl)amino]-2-[3-(trifluoromethyl)phenyl]ethyl}oxane-4-carboxamide] | < 10
O=C(NCC(Nc1nc2ccccc2[nH]1)c1cccc(C(F)(F)F)c1)c1cccc(F)c1 (stereo not drawn) [Example 9, N-{2-[(1H-1,3-benzodiazol-2-yl)amino]-2-[3-(trifluoromethyl)phenyl]ethyl}-3-fluorobenzamide] | < 10
CCC(=O)NCC(Nc1nc2ccccc2[nH]1)c1cccc(C(F)(F)F)c1 (stereo not drawn) [Example 10, N-{2-[(1H-1,3-benzodiazol-2-yl)amino]-2-[3-(trifluoromethyl)phenyl]ethyl}propanamide] | < 10
O=C1CCCN1CC(Nc1nc2ccccc2[nH]1)c1cccc(C(F)(F)F)c1 (stereo not drawn) [Example 11, 1-{2-[(1H-1,3-benzodiazol-2-yl)amino]-2-[3-(trifluoromethyl)phenyl]ethyl}pyrrolidin-2-one] | < 10
COCC(=O)NC[C@H](Nc1nc2ccccc2[nH]1)c1cccc(C(F)(F)F)c1 [Example 12, N-[(2R)-2-[(1H-1,3-benzodiazol-2-yl)amino]-2-[3-(trifluoromethyl)phenyl]ethyl]-2-methoxyacetamide] | < 10
O=C(CO)NC[C@H](Nc1nc2ccccc2[nH]1)c1cccc(C(F)(F)F)c1 [Example 13, N-[(2R)-2-[(1H-1,3-benzodiazol-2-yl)amino]-2-[3-(trifluoromethyl)phenyl]ethyl]-2-hydroxyacetamide] | < 10
CC(=O)NCCC(Nc1nc2ccccc2[nH]1)c1cccc(C(F)(F)F)c1 (stereo not drawn) [Example 14, N-{3-[(1H-1,3-benzodiazol-2-yl)amino]-3-[3-(trifluoromethyl)phenyl]propyl}acetamide] | < 10
O=C(NCCC(Nc1nc2c(CO)cccc2[nH]1)c1cccc(C(F)(F)F)c1)c1ccon1 (stereo not drawn) [Example 15, N-(3-{[4-(hydroxymethyl)-1H-1,3-benzodiazol-2-yl]amino}-3-[3-(trifluoromethyl)phenyl]propyl)-1,2-oxazole-3-carboxamide] | < 10
O=C(NCCC(Nc1nc2ccccc2[nH]1)c1cccc(C(F)(F)F)c1)C(F)(F)F (stereo not drawn) [Example 16, N-{3-[(1H-1,3-benzodiazol-2-yl)amino]-3-[3-(trifluoromethyl)phenyl]propyl}-2,2,2-trifluoroacetamide; formic acid] | < 10
CC(=O)NC(C)CC(Nc1nc2ccccc2[nH]1)c1cccc(C(F)(F)F)c1 (stereo not drawn) [Example 17, N-{4-[(1H-1,3-benzodiazol-2-yl)amino]-4-[3-(trifluoromethyl)phenyl]butan-2-yl}acetamide; trifluoroacetic acid] | < 10
CC(=O)N(C)CCC(Nc1nc2ccccc2[nH]1)c1cccc(C(F)(F)F)c1 (stereo not drawn) [Example 18, N-{3-[(1H-1,3-benzodiazol-2-yl)amino]-3-[3-(trifluoromethyl)phenyl]propyl}-N-methylacetamide] | < 10
CC(=O)NCCCC(Nc1nc2ccccc2[nH]1)c1cccc(C(F)(F)F)c1 (stereo not drawn) [Example 19, N-{4-[(1H-1,3-benzodiazol-2-yl)amino]-4-[3-(trifluoromethyl)phenyl]butyl}acetamide] | < 10
CC(=O)NCCCC(Nc1nc2cc(F)ccc2[nH]1)c1cccc(C(F)(F)F)c1 (stereo not drawn) [Example 20, N-{4-[(5-fluoro-1H-1,3-benzodiazol-2-yl)amino]-4-[3-(trifluoromethyl)phenyl]butyl}acetamide] | < 10
CC(=O)NCCC(C)(Nc1nc2ccccc2[nH]1)c1cccc(C(F)(F)F)c1 (stereo not drawn) [Example 21, N-{3-[(1H-1,3-benzodiazol-2-yl)amino]-3-[3-(trifluoromethyl)phenyl]butyl}acetamide] | < 10
CC(=O)NCCC(Nc1nc2ccccc2[nH]1)c1cccc(OC(F)(F)F)c1 (stereo not drawn) [Example 22, N-{3-[(1H-1,3-benzodiazol-2-yl)amino]-3-[3-(trifluoromethoxy)phenyl]propyl}acetamide] | < 10
